Experiments:
NIMIN-1 mRNA = settings: cited from earlier work
NIMIN-2 promoter = experiment: GUS reporter gene activity in leaf discs of transgenic lines floated on inducer; assay type: cell-based, Arabidopsis thaliana; settings: leaf discs floated on 1 mM SA or 140 mg/l Bion, 3 days, protein extracts; FIG. 3
Experimental: (§1) For characterizing the influence of chemicals on the activity of the NIMIN promoters, leaf discs were punched from the transgenic lines NIMIN1-GUS and NIMIN2-GUS. As a control, PR-1a promoter fusions were used. The leaf discs were floated on 1 mM SA, 140 mg/l Bion (a functional analogue to salicylic acid) or water. After 3 days, protein extracts were prepared and the activity of the GUS reporter gene in the extracts was assayed. The resulting reporter gene activities were 5 times higher In the NIMIN-2 promoter fusions than In PR-1a promoter fusions (cf. FIG. 3). Further, leaf discs from the transgenic lines NIMIN1-GUS and NIMIN2-GUS were incubated with different salicylic acid concentrations.

NIMIN-2 mRNA = settings: cited from earlier work
NIMIN promoters = experiment: GUS reporter gene activity in leaf discs incubated with different salicylic acid concentrations; assay type: cell-based, Arabidopsis thaliana; settings: leaf discs of NIMIN1-GUS and NIMIN2-GUS lines; FIGS. 4 and 5
Experimental: as §1

SMILES	inducibility of NIMIN-1 mRNA (NIMIN-1 mRNA)	reporter gene (GUS) activity in NIMIN-2 promoter fusions relative to PR-1a promoter fusions (NIMIN-2 promoter)	inducibility of NIMIN-2 mRNA (NIMIN-2 mRNA)	activity of the NIMIN promoters versus inducer concentration (NIMIN promoters)
CSC(=O)c1cccc2nnsc12 [Bion]	inducible	5 times	inducible	
O=C(O)c1ccccc1O [salicylic acid]	inducible	5 times	inducible	depends on the salicyclic acid concentration

— US20060242728A1, “Chemically-inducible promotors for the expression of proteins in plants” (priority 2003, published 2006)
